The results in this text go back to patent US20220370450A1, “CONTROLLED-RELEASE COMPOSITION FOR ORAL ADMINISTRATION COMPRISING COMPLEX OF ALPHA ADRENERGIC BLOCKER COMPOUND AND CLAY MINERAL” (Korea Institute Of Geoscience And Mineral Resources, priority 2019, published 2022).

Broadly, the AUC(0-t) is exposure summed from dosing to a finite time, without extrapolation to infinity. The low end stands for low exposure, the high end for high exposure. Broadly, the Cmax is the peak of the concentration-time curve. Broadly, the Tmax is the time from dosing to the highest level. The term bioavailability denotes the share of a dose that reaches the circulation, judged against a reference dose that is usually intravenous.

Data set [1] is described as follows: Drug release experiment using a semi-permeable membrane. It counts as physicochemical. To be noted: for elution rate: in both pH 1.2 and 7.8; for time within which most of the drug was released / drug released within initial 1 hour: semi-permeable membrane bag, cut-off 12,000 to 14,000 Da, 37° C.; for drug released within initial 1 hour: eluate pH 1.2 or pH 7.8; for release rate (membrane release amount of drug per unit time) of the drug solution relative to the drug-bentonite complex dispersion solution: semi-permeable membrane cut-off 12,000 to 14,000 Da. The method, then:
The amount of the drug-bentonite complex was adjusted so that the drug final concentration inside the elution system became 1 μg/ml. At this time, as the eluate, a 0.1 N hydrochloric acid solution of pH 1.2 and a phosphate buffer of pH 7.8 were used and the elution was performed while maintaining 37° C. While the eluate outside the semi-permeable membrane was partially taken by time and the same amount of eluate was compensated, the experiment was conducted, and the drug concentration of the taken sample was analyzed using high performance liquid chromatography.

Data set [2] can be described thus: in vivo. To be noted: Sprague-Dawley, rat, po, 1 mg/kg.
Description: (§1) The breeding conditions of the experimental animals were as follows.
(§2) After the femoral region of the fixed rat was shaved, the blood-gathering was prepared by injecting a cannula. A drug-bentonite complex dispersion solution as an experimental group and a drug aqueous solution as a control group were administered using an oral zonde and then a certain amount of plasma was collected through the cannula for each predetermined time and the plasma drug concentration was measured.
(§3) The drug concentrations in the plasma samples were analyzed using a mass spectrometer.
For data set [3] the following is noted: rat, in vivo, po, 1 mg/kg.
Description: as §1, §2, §3

The structures appear in SMILES notation.

Regarding `COc1cc2nc(N3CCN(C(=O)c4ccco4)CC3)nc(N)c2cc1OC` [Prazosin, prazosin], the “release amount of the drug solution relative to the complex dispersion solution” value in data set [1] (after 2 hours of the test, pH 1.2) is listed as “two times larger”. The “release amount of the drug solution relative to the complex dispersion solution” value in data set [1] (after 2 hours of the test, pH 7.8) is recorded as “significantly larger”. For the same compound, in data set [1], the elution rate result is recorded as “fast elution rate”, the “time within which most of the drug was released” value is at most 4 h, the “drug released within initial 1 hour” value is at least 70% and the “release rate (membrane release amount of drug per unit time) of the drug solution relative to the drug-bentonite complex dispersion solution” value was “larger”. Moreover, in data set [2], the AUC(0-t) is 247 ± 45.1 ng·h/mL, the concentration peaked (Cmax) at 129 ± 36.2 ng/mL, the time of peak concentration (Tmax) was found to be 22.8 ± 7.8 min and the bioavailability stood at 100%.

Consider `COc1cc2nc(N3CCN(C(=O)C4COc5ccccc5O4)CC3)nc(N)c2cc1OC` (centres unmarked) [Doxazosin, doxazosin], for which, in data set [1] (after 4 hours of the test), the “release amount of the drug solution relative to the complex dispersion solution” value is recorded as “two times larger”. Also, in data set [1], the elution rate entry is “fast elution rate”, the “time within which most of the drug was released” value was at most 4 h, the “drug released within initial 1 hour” value was at least 50% and the “release rate (membrane release amount of drug per unit time) of the drug solution relative to the drug-bentonite complex dispersion solution” value was “two times larger”. The “time within which the plasma concentration reached the maximum plasma concentration (Cmax)” value in data set [3] was 30 to 60 min. In data set [2], the AUC(0-t) was 186 ± 54.7 ng·h/mL, the Cmax is 67.3 ± 14.2 ng/mL, the Tmax came out at 45 ± 15 min and the bioavailability worked out at 100%.
